According to US4345938A, “Herbicidal 2-haloacetanilides” (Monsanto Company, priority 1980, dated 1982):
Read-outs that look alike come from different tables or passages of the source.

Key:
Assay type in all cases: in vivo
Eleocharis kuroguwai [1] = assay: Field transplant rice test, applied 0 DAT, EK; details: 0 h, read-out: Percent Inhibition, EK; for inhibition at 375 g/ha: 0.375 Kg/Ha; for inhibition at 750 g/ha: 0.75 Kg/Ha; for inhibition at 1500 g/ha: 1.5 Kg/Ha; for inhibition at 3000 g/ha: 3.0 Kg/Ha
Method: (§1) The test data in Table III for all compounds was obtained under identical test conditions. The weeds used in the tests herein have the following abbreviations in the tables: Echinochloa crus-galli (EC), Monochloria vaginalis (MV), Cyperus Serotinus (CS), Eleocharis Kuroguwai (EK) and Sagittaria trifolia (ST).
(§2) In further comparative tests, a preferred compound of this invention (Example 1) was tested in the field with prior art Compounds A-D. These tests were conducted under conditions reflecting herbicide application times generally favorable to all herbicides in the test. The timing of application of herbicides to transplant rice is very important, whether, as in some instances, prior to transplanting the rice; in other instances, at the time of transplanting or else after transplanting. Application times are conventionally referred to as "days before transplant" (DBT) or "days after transplant" ("DAT"). The field test data in Table IV was obtained from a test in which the herbicides were applied at the time of transplant, i.e., "0 DAT", with observations being made weekly up to six weeks after transplant ("WAT") beginning at two weeks after transplant; for illustrative and representative purposes, only the early, middle and late period observations, i.e., 2 WAT, 4 WAT and 6 WAT, are shown in Table IV. The data in Table IV is for rates of application common to all herbicides in the test, i.e., from 3.0 kg/ha (2.67 lb/A) down to 0.375 kg/ha (0.34 lb/A). All herbicides were applied at their actual or expected use rates, i.e., as granules containing 2.5% by weight herbicide for the compound of Example 1, Compounds B, C and D and 5.0% by weight for Compound A.

Echinochloa crus-galli = assay: Field transplant rice test, applied 9 DAT, EC; details: for inhibition at 375 g/ha / inhibition at 750 g/ha / inhibition at 1500 g/ha / inhibition at 3000 g/ha: Echinochloa crus-galli, 216 h, read-out: Percent Inhibition, EC; for inhibition at 375 g/ha: 0.375 Kg/Ha; for inhibition at 750 g/ha: 0.75 Kg/Ha; for inhibition at 1500 g/ha: 1.5 Kg/Ha; for inhibition at 3000 g/ha: 3.0 Kg/Ha
Description: (§3) In the discussion of data below, occasional reference is made to herbicide application rates symbolized as "GR15 " and "GR85 "; these rates are given in kilograms per hectare (kg/ha) which are convertible into pounds per acre (lbs/A) by dividing the kg/ha rate by 1.12.
(§4) A further guide to the effectiveness of a chemical as a selective herbicide is the "selectivity factor" ("SF") for a herbicide in given crops and weeds. The selectivity factor is a measure of the relative degree of crop safety and weed injury and is expressed in terms of the GR15 /GR85 ratio, i.e., the GR15 rate for the crop divided by the GR85 rate for the weed, both rates in kg/ha (lb/A.)
as §1, §2
(§5) In Table V are presented field data showing the relative performance of the compound of Example 1 and Compounds A-D applied 9 DAT, with observations being made weekly from 3 WAT to 7 WAT; again, for illustrative and representative purposes, only the early, middle and late period observations are reported in Table V, the herbicide rates and concentrations of active ingredients the same as is shown in Table IV.

Monochoria vaginalis = assay: Field transplant rice test, applied 9 DAT, MV; details: for inhibition at 375 g/ha / inhibition at 750 g/ha / inhibition at 1500 g/ha / inhibition at 3000 g/ha: Pontederia vaginalis, 216 h, read-out: Percent Inhibition, MV; for inhibition at 375 g/ha: 0.375 Kg/Ha; for inhibition at 750 g/ha: 0.75 Kg/Ha; for inhibition at 1500 g/ha: 1.5 Kg/Ha; for inhibition at 3000 g/ha: 3.0 Kg/Ha
Description: as §3, §4, §1, §2, §5

Cyperus serotinus = assay: Field transplant rice test, applied 9 DAT, CS; details: for inhibition at 375 g/ha / inhibition at 750 g/ha / inhibition at 1500 g/ha / inhibition at 3000 g/ha: Cyperus serotinus, 216 h, read-out: Percent Inhibition, CS; for inhibition at 375 g/ha: 0.375 Kg/Ha; for inhibition at 750 g/ha: 0.75 Kg/Ha; for inhibition at 1500 g/ha: 1.5 Kg/Ha; for inhibition at 3000 g/ha: 3.0 Kg/Ha
Description: as §3, §4, §1, §2, §5

Eleocharis kuroguwai [2] = assay: Field transplant rice test, applied 9 DAT, EK; details: for inhibition at 375 g/ha / inhibition at 750 g/ha / inhibition at 1500 g/ha / inhibition at 3000 g/ha: Eleocharis kuroguwai, 216 h, read-out: Percent Inhibition, EK; for inhibition at 375 g/ha: 0.375 Kg/Ha; for inhibition at 750 g/ha: 0.75 Kg/Ha; for inhibition at 1500 g/ha: 1.5 Kg/Ha; for inhibition at 3000 g/ha: 3.0 Kg/Ha
Description: as §3, §4, §1, §2, §5

Which inhibition at 375 g/ha (Eleocharis kuroguwai [1]; 2 WAT) does the source give for `CCCCOCN(C(=O)CCl)c1c(C)cccc1C(C)(C)C` [Compound C, 2'-methyl-6'-tert-butyl-N-(n-butoxymethyl)-2-chloroacetanilide] here?
The inhibition at 375 g/ha was 63%.

And the inhibition at 375 g/ha (Eleocharis kuroguwai [1]; 4 WAT)?
The inhibition at 375 g/ha was 52%.

What about the inhibition at 375 g/ha (Eleocharis kuroguwai [1]; 6 WAT) of the same molecule?
The inhibition at 375 g/ha was 18%.

What about the inhibition at 750 g/ha (Eleocharis kuroguwai [1]; 2 WAT) of the same molecule?
Its inhibition at 750 g/ha is 68%.

And the inhibition at 750 g/ha (Eleocharis kuroguwai [1]; 4 WAT)?
Its inhibition at 750 g/ha is 58%.

And the inhibition at 750 g/ha (Eleocharis kuroguwai [1]; 6 WAT)?
The inhibition at 750 g/ha was 18%.

And the inhibition at 1500 g/ha (Eleocharis kuroguwai [1]; 2 WAT)?
Its inhibition at 1500 g/ha is 85%.

What about the inhibition at 1500 g/ha (Eleocharis kuroguwai [1]; 4 WAT) of the same molecule?
The inhibition at 1500 g/ha was 93%.

What about the inhibition at 1500 g/ha (Eleocharis kuroguwai [1]; 6 WAT) of the same molecule?
Its inhibition at 1500 g/ha is 67%.

And the inhibition at 3000 g/ha (Eleocharis kuroguwai [1]; 2 WAT)?
Its inhibition at 3000 g/ha is 82%.

What about the inhibition at 3000 g/ha (Eleocharis kuroguwai [1]; 4 WAT) of the same molecule?
The inhibition at 3000 g/ha was 90%.

What about the inhibition at 3000 g/ha (Eleocharis kuroguwai [1]; 6 WAT) of the same molecule?
The inhibition at 3000 g/ha was 80%.

What about the inhibition at 375 g/ha (Echinochloa crus-galli; 3 WAT) of the same molecule?
The inhibition at 375 g/ha was 82%.

What about the inhibition at 375 g/ha (Echinochloa crus-galli; 5 WAT) of the same molecule?
The inhibition at 375 g/ha was 78%.

And the inhibition at 375 g/ha (Echinochloa crus-galli; 7 WAT)?
The inhibition at 375 g/ha was 82%.

What about the inhibition at 750 g/ha (Echinochloa crus-galli; 3 WAT) of the same molecule?
Its inhibition at 750 g/ha is 92%.

What about the inhibition at 750 g/ha (Echinochloa crus-galli; 5 WAT) of the same molecule?
Its inhibition at 750 g/ha is 95%.

What about the inhibition at 750 g/ha (Echinochloa crus-galli; 7 WAT) of the same molecule?
Its inhibition at 750 g/ha is 97%.

What about the inhibition at 1500 g/ha (Echinochloa crus-galli; 3 WAT) of the same molecule?
The inhibition at 1500 g/ha was 98%.

What about the inhibition at 1500 g/ha (Echinochloa crus-galli; 5 WAT) of the same molecule?
The inhibition at 1500 g/ha was 100%.

What about the inhibition at 1500 g/ha (Echinochloa crus-galli; 7 WAT) of the same molecule?
The inhibition at 1500 g/ha was 100%.

What about the inhibition at 3000 g/ha (Echinochloa crus-galli; 3 WAT) of the same molecule?
Its inhibition at 3000 g/ha is 98%.

What about the inhibition at 3000 g/ha (Echinochloa crus-galli; 5 WAT) of the same molecule?
The inhibition at 3000 g/ha was 100%.

What about the inhibition at 3000 g/ha (Echinochloa crus-galli; 7 WAT) of the same molecule?
The inhibition at 3000 g/ha was 100%.

What about the “selectivity factor (GR15/GR85), EC in transplant rice” value (Echinochloa crus-galli; between 3 WAT and 7 WAT) of the same molecule?
The value was 4.

What about the inhibition at 375 g/ha (Monochoria vaginalis; 3 WAT) of the same molecule?
The inhibition at 375 g/ha was 97%.

And the inhibition at 375 g/ha (Monochoria vaginalis; 5 WAT)?
The inhibition at 375 g/ha was 98%.

And the inhibition at 375 g/ha (Monochoria vaginalis; 7 WAT)?
Its inhibition at 375 g/ha is 60%.

What about the inhibition at 750 g/ha (Monochoria vaginalis; 3 WAT) of the same molecule?
Its inhibition at 750 g/ha is 100%.

And the inhibition at 750 g/ha (Monochoria vaginalis; 5 WAT)?
The inhibition at 750 g/ha was 100%.

And the inhibition at 750 g/ha (Monochoria vaginalis; 7 WAT)?
The inhibition at 750 g/ha was 100%.

What about the inhibition at 1500 g/ha (Monochoria vaginalis; 3 WAT) of the same molecule?
Its inhibition at 1500 g/ha is 100%.

What about the inhibition at 1500 g/ha (Monochoria vaginalis; 5 WAT) of the same molecule?
The inhibition at 1500 g/ha was 100%.

What about the inhibition at 1500 g/ha (Monochoria vaginalis; 7 WAT) of the same molecule?
Its inhibition at 1500 g/ha is 100%.

What about the inhibition at 3000 g/ha (Monochoria vaginalis; 3 WAT) of the same molecule?
Its inhibition at 3000 g/ha is 100%.

What about the inhibition at 3000 g/ha (Monochoria vaginalis; 5 WAT) of the same molecule?
The inhibition at 3000 g/ha was 100%.

And the inhibition at 3000 g/ha (Monochoria vaginalis; 7 WAT)?
The inhibition at 3000 g/ha was 100%.

And the “selectivity factor (GR15/GR85), MV in transplant rice” value (Monochoria vaginalis; between 3 WAT and 7 WAT)?
The value was 8.

What about the inhibition at 375 g/ha (Cyperus serotinus; 3 WAT) of the same molecule?
Its inhibition at 375 g/ha is 58%.

And the inhibition at 375 g/ha (Cyperus serotinus; 5 WAT)?
The inhibition at 375 g/ha was 60%.

What about the inhibition at 375 g/ha (Cyperus serotinus; 7 WAT) of the same molecule?
The inhibition at 375 g/ha was 43%.

What about the inhibition at 750 g/ha (Cyperus serotinus; 3 WAT) of the same molecule?
The inhibition at 750 g/ha was 93%.

And the inhibition at 750 g/ha (Cyperus serotinus; 5 WAT)?
Its inhibition at 750 g/ha is 93%.

And the inhibition at 750 g/ha (Cyperus serotinus; 7 WAT)?
The inhibition at 750 g/ha was 82%.

What about the inhibition at 1500 g/ha (Cyperus serotinus; 3 WAT) of the same molecule?
Its inhibition at 1500 g/ha is 62%.

And the inhibition at 1500 g/ha (Cyperus serotinus; 5 WAT)?
The inhibition at 1500 g/ha was 87%.

What about the inhibition at 1500 g/ha (Cyperus serotinus; 7 WAT) of the same molecule?
The inhibition at 1500 g/ha was 83%.

What about the inhibition at 3000 g/ha (Cyperus serotinus; 3 WAT) of the same molecule?
Its inhibition at 3000 g/ha is 95%.

What about the inhibition at 3000 g/ha (Cyperus serotinus; 5 WAT) of the same molecule?
Its inhibition at 3000 g/ha is 100%.

And the inhibition at 3000 g/ha (Cyperus serotinus; 7 WAT)?
Its inhibition at 3000 g/ha is 100%.

What about the “selectivity factor (GR15/GR85), CS in transplant rice” value (Cyperus serotinus; between 3 WAT and 7 WAT) of the same molecule?
Its value is 4.

What about the inhibition at 375 g/ha (Eleocharis kuroguwai [2]; 3 WAT) of the same molecule?
The inhibition at 375 g/ha was 52%.

And the inhibition at 375 g/ha (Eleocharis kuroguwai [2]; 5 WAT)?
Its inhibition at 375 g/ha is 23%.

What about the inhibition at 375 g/ha (Eleocharis kuroguwai [2]; 7 WAT) of the same molecule?
Its inhibition at 375 g/ha is 15%.

And the inhibition at 750 g/ha (Eleocharis kuroguwai [2]; 3 WAT)?
The inhibition at 750 g/ha was 75%.

What about the inhibition at 750 g/ha (Eleocharis kuroguwai [2]; 5 WAT) of the same molecule?
Its inhibition at 750 g/ha is 68%.

And the inhibition at 750 g/ha (Eleocharis kuroguwai [2]; 7 WAT)?
Its inhibition at 750 g/ha is 32%.

What about the inhibition at 1500 g/ha (Eleocharis kuroguwai [2]; 3 WAT) of the same molecule?
The inhibition at 1500 g/ha was 70%.

What about the inhibition at 1500 g/ha (Eleocharis kuroguwai [2]; 5 WAT) of the same molecule?
Its inhibition at 1500 g/ha is 77%.

And the inhibition at 1500 g/ha (Eleocharis kuroguwai [2]; 7 WAT)?
The inhibition at 1500 g/ha was 38%.

What about the inhibition at 3000 g/ha (Eleocharis kuroguwai [2]; 3 WAT) of the same molecule?
Its inhibition at 3000 g/ha is 83%.

And the inhibition at 3000 g/ha (Eleocharis kuroguwai [2]; 5 WAT)?
Its inhibition at 3000 g/ha is 93%.

What about the inhibition at 3000 g/ha (Eleocharis kuroguwai [2]; 7 WAT) of the same molecule?
Its inhibition at 3000 g/ha is 74%.

And the “selectivity factor (GR15/GR85), EK in transplant rice” value (Eleocharis kuroguwai [2]; at 5 WAT)?
The value was “greater than 1”.
